Experiments:
251-kinase panel = assay: 251-kinase panel, kinase selectivity; assay type: biochemical; conditions: 1 μM
human B cell activation = human B cell activation in vitro; assay type: cell-based
Fc receptor signaling = assay: antibody mediated activation of immune cells in vitro; assay type: cell-based
[1] = test system: rat collagen-induced arthritis model; assay: rat collagen-induced arthritis model; assay type: in vivo
[2] = test system: rat antibody-mediated arthus model; assay: rat antibody-mediated arthus model; assay type: in vivo
[3] = test system: spontaneous canine pemphigus foliaceus; assay: spontaneous canine pemphigus foliaceus; assay type: in vivo
blood platelets = assay: ex vivo platelet aggregation, standard panel of platelet agonists; assay type: cell-based, human; conditions: for platelet aggregation: ≤1 μM, standard panel of platelet agonists
[4] = in vivo
P-gp = P-gp (Homo sapiens, UniProt P08183); conditions: not told
Chain of P-gp (P08183 whole entry): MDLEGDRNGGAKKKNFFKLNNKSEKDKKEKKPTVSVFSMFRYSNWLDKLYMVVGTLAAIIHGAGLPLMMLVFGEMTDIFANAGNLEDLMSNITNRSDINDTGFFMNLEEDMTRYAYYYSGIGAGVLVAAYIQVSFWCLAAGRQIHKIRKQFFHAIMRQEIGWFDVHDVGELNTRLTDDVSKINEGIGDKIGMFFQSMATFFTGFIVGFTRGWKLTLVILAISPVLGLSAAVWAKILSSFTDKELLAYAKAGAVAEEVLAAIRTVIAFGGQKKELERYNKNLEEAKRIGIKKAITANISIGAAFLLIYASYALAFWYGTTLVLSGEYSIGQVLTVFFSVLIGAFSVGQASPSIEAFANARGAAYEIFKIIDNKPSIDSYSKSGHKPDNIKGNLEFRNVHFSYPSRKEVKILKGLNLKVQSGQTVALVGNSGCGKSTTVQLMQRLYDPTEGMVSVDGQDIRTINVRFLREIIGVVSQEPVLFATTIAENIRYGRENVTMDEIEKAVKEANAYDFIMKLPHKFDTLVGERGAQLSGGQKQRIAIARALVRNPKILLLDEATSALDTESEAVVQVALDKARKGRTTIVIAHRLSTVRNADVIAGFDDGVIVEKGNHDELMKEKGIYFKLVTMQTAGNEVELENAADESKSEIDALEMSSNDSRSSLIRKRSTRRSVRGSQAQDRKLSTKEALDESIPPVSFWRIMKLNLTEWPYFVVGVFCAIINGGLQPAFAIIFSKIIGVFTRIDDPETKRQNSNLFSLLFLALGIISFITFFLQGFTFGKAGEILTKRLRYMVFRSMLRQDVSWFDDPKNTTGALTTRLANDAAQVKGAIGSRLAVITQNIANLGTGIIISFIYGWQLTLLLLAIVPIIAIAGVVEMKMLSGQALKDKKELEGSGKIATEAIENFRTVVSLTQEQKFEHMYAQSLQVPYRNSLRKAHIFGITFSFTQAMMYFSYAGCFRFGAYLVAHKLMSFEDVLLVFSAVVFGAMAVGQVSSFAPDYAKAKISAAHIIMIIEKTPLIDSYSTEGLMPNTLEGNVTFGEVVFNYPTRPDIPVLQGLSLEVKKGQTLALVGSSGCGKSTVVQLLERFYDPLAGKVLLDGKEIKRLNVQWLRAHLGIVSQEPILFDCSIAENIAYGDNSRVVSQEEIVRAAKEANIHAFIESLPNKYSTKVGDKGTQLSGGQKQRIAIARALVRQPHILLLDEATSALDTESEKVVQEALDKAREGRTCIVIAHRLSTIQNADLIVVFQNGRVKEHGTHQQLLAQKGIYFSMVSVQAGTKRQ

[5] = in vivo; remark: listed apart in the source
Description: TEAEs include all AEs that start on or after the first dose of study medication, or AEs that are present prior to the first dose of study medication, but their severity or relationship increases after the first dose of study medication up to and including the final study medication dosing date. Within each preferred term, patients are counted only once if they had more than one event reported during the dosing period.
Non-hematologic DLT is considered any >Grade 3 non-hematologic toxicity per the NCI Common Terminology Criteria for Adverse Events (CTCAE), version 4.0, with the following exceptions: laboratory TEAEs that are asymptomatic and return to baseline or to Grade 1 within 7 days; fatigue; nausea, vomiting or diarrhea that return to baseline or Grade 1 within 7 days; and systemic reactions (such as, e.g., fever, headache) that return to baseline or Grade 1 within 7 days. Any toxicity that, at the discretion of the Investigator, is thought to warrant withholding the study drug for more than 7 days is also considered a DLT.
The AE Collection Period begins at the time of the first screening/eligibility assessment and ends at the end of the study for each patient. […] An AE can therefore be any unfavorable and unintended sign (including an abnormal laboratory finding, for example), symptom, or disease temporally associated with the use of an investigational product, whether or not considered related to the product. Investigators are instructed to record all AEs encountered during the clinical study in detail from the date of participant consent throughout the study follow-up period. Pre-existing conditions that worsen during a study are reported as AEs.
Investigators are instructed to report all clinical AEs encountered during the study. The intensity of AEs is graded based on the NCI CTCAE, Version 4.0 or higher. For any AEs not found in the CTCAE, a description of intensity grading can be found below: • Grade 1: Mild; asymptomatic or mild symptoms; clinical or diagnostic observations only; intervention not indicated. • Grade 2: Moderate; minimal, local or noninvasive intervention indicated; limiting age-appropriate instrumental activities of daily living. • Grade 3: Severe or medically significant but not immediately life-threatening; hospitalization or prolongation of hospitalization indicated; disabling; limiting self-care activities of daily living.

[6] = Phase 1 study, healthy volunteers; cited from earlier work
clinical = conditions: human, in vivo
pemphigus patients = assay: human pemphigus (PV; Study PRN1008-005)
[7] = test system: mouse model of anti-platelet driven immune thrombocytopenia; assay: mouse model of immune thrombocytopenia, platelet count

SMILES: CC(C)(C=C(C#N)C(=O)N1CCC[C@@H](n2nc(-c3ccc(Oc4ccccc4)cc3F)c3c(N)ncnc32)C1)N1CCN(C2COC2)CC1 [PRN1008, (R)-2-[3-[4-amino-3-(2-fluoro-4-phenoxy-phenyl)pyrazolo[3,4-d]pyrimidin-1-yl]piperidine-1-carbonyl]-4-methyl-4-[4-(oxetan-3-yl)piperazin-1-yl]pent-2-enenitrile]
- number of kinases with >90% inhibition (251-kinase panel): 6 kinases
- human B cell activation (human B cell activation): profoundly inhibits
- antibody (IgG, IgE) mediated activation of immune cells via Fc receptor signaling (Fc receptor signaling): blocks
- anti-inflammatory effects [1]: rapid and significant anti-inflammatory effects
- anti-inflammatory effects [2]: rapid and significant anti-inflammatory effects
- anti-inflammatory effects [3]: rapid and significant anti-inflammatory effects
- platelet aggregation (blood platelets; blood of ITP patients): no effect
- platelet aggregation (blood platelets; blood of healthy volunteers): no effect
- collagen-induced platelet aggregation (blood platelets; normal or ITP patient platelet samples, clinically relevant concentrations): did not impact
- impact of food on extent of absorption [4]: does not appear to impact
- P-gp substrate (P-gp): substrate
- CYP3A inhibitor (CYP3A): inhibitor
- CYP3A substrate (CYP3A): substrate
- All related TEAEs, Grade 1 ([5]; human): 10 (21) n (%)
- All related TEAEs, Grade 2 ([5]; human): 11 (23) n (%)
- Related TEAEs, Abdominal distension, Grade 1/2 ([5]; human): 3 (10) n (%)
- Related TEAEs, All TEAEs, Grade 1/2 ([5]; human): 11 (35) n (%)
- Related TEAEs, Diarrhea, Grade 1 ([5]; human): 14 (30) n (%)
- Related TEAEs, Diarrhea, Grade 1/2 ([5]; human): 7 (23) n (%)
- Related TEAEs, Diarrhea, Grade 2 ([5]; human): 2 (4) n (%)
- Related TEAEs, Fatigue, Grade 1 ([5]; human): 5 (11) n (%)
- Related TEAEs, Fatigue, Grade 1/2 ([5]; human): 3 (10) n (%)
- Related TEAEs, Fatigue, Grade 2 ([5]; human): 1 (2) n (%)
- Related TEAEs, Nausea, Grade 1 ([5]; human): 12 (26) n (%)
- Related TEAEs, Nausea, Grade 1/2 ([5]; human): 8 (26) n (%)
- Related TEAEs, Nausea, Grade 2 ([5]; human): 1 (2) n (%)
- dose-limiting toxicities [5]: No dose-limiting toxicities were observed
- related serious adverse events [5]: No related serious adverse events were reported
- thrombotic events [5]: no thrombotic events
- treatment related bleeding or thrombotic events [5]: no reported treatment related bleeding or thrombotic events
- most commonly reported adverse events [6]: gastrointestinal adverse events, including nausea/vomiting and diarrhea
- serious adverse events or deaths [6]: No serious adverse events or deaths were reported
- Tmax (clinical): ~2.5 h
- half-life (clinical; po): 3 to 4 h
- onset of clinical effect in most pemphigus patients (pemphigus patients; Study PRN1008-005): ≤ 4 weeks
- anti-inflammatory effects (pemphigus patients; human pemphigus vulgaris (PV)): rapid and significant anti-inflammatory effects
- platelet decrease from baseline ([7]; 10 mg/kg/d, anti-platelet challenge (vehicle 83.1%)): 71.9%
- platelet-loss (consumption) ([7]; mouse model of immune thrombocytopenia): significant dose dependent reduction

From patent US12178818B2, “Methods for treating immune thrombocytopenia by administering (R)-2-[3-[4-amino-3-(2-fluoro-4-phenoxy-phenyl)pyrazolo[3,4-d]pyrimidin-1-yl]piperidine-1-carbonyl]-4-methyl-4-[4-(oxetan-3-yl)piperazin-1-yl]pent-2-enenitrile” (Principia Biopharma Inc., priority 2019, dated 2024)
